Measured values taken from PubChem BioAssay AID256 (DTP/NCI, 2004).
Where “and” joins values, the source holds several entries; their conditions need not be identical. Equal values may be shown once. Inconclusive results and toxic doses are left out.

Test system: CD2F1 mice, L1210 leukemia ip, survival T/C
Assay: NCI In Vivo Anticancer Drug Screen. Data for tumor model L1210 Leukemia (intraperitoneal) in CD2F1 (CDF1) mice
Conditions: higher = longer survival
In short: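 Compound-dosed mice with transplantable tumor versus matched vehicle controls; endpoint ratio T/C reported.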

[1] = endpoint: mean survival time, dose: 25.0 mg/kg/injection, schedule: Q01DX009 (ip), vehicle: saline with Tween-80
[2] = endpoint: mean survival time, dose: 50.0 mg/kg/injection, schedule: Q01DX009 (ip), vehicle: saline with Tween-80
[3] = endpoint: mean survival time, dose: 100.0 mg/kg/injection, schedule: Q01DX009 (ip), vehicle: saline with Tween-80
[4] = endpoint: mean survival time, dose: 100.0 mg/kg/injection, schedule: Q04DX003 (ip), vehicle: saline with Tween-80
[5] = endpoint: mean survival time, dose: 400.0 mg/kg/injection, schedule: Q04DX003 (ip), vehicle: saline with Tween-80
[6] = endpoint: mean survival time, dose: 100.0 mg/kg/injection, schedule: Q01DX001 (ip), vehicle: saline with Tween-80
[7] = endpoint: mean survival time, dose: 200.0 mg/kg/injection, schedule: Q01DX001 (ip), vehicle: saline with Tween-80
[8] = endpoint: mean survival time, dose: 400.0 mg/kg/injection, schedule: Q01DX001 (ip), vehicle: saline with Tween-80
[9] = endpoint: mean survival time, dose: 200.0 mg/kg/injection, schedule: Q01DX009 (ip), vehicle: saline with Tween-80
[10] = endpoint: mean survival time, dose: 200.0 mg/kg/injection, schedule: Q04DX003 (ip), vehicle: saline with Tween-80
[11] = endpoint: mean survival time, dose: 400.0 mg/kg/injection, schedule: Q01DX009 (ip), vehicle: saline with Tween-80

For CO[C@H]1C[C@](C)(O)Cc2cc3c(c(O)c21)C(=O)c1c(O)cc2c(c1C3=O)O[C@@H]1O[C@@]2(C)[C@H](O)[C@@H](N(C)C)[C@@H]1O, the T/C (endpoint: mean survival time, dose: 0.78 mg/kg/injection, schedule: Q01DX009 (ip), vehicle: other) was 123 % of control and 112 % of control, the T/C (endpoint: mean survival time, dose: 3.12 mg/kg/injection, schedule: Q01DX009 (ip), vehicle: other) was 117 % of control and the T/C (endpoint: mean survival time, dose: 3.13 mg/kg/injection, schedule: Q01DX009 (ip), vehicle: other) was 151 % of control. For the same molecule, the T/C (endpoint: mean survival time, dose: 3.13 mg/kg/injection, schedule: Q01DX009 (oral), vehicle: other) was 112 % of control, the T/C (endpoint: mean survival time, dose: 3.13 mg/kg/injection, schedule: Q01DX009 (oral), vehicle: saline) was 102 % of control and the T/C (endpoint: mean survival time, dose: 6.25 mg/kg/injection, schedule: Q01DX009 (oral), vehicle: other) was 116 % of control. The T/C (endpoint: mean survival time, dose: 6.25 mg/kg/injection, schedule: Q01DX009 (oral), vehicle: saline) was 116 % of control, the T/C (endpoint: mean survival time, dose: 12.5 mg/kg/injection, schedule: Q01DX009 (oral), vehicle: other) was 153 % of control and the T/C (endpoint: mean survival time, dose: 25.0 mg/kg/injection, schedule: Q01DX009 (oral), vehicle: other) was 208 % of control. The T/C (endpoint: mean survival time, dose: 25.0 mg/kg/injection, schedule: Q01DX009 (oral), vehicle: saline) was 183 % of control, the T/C (endpoint: mean survival time, dose: 50.0 mg/kg/injection, schedule: Q01DX009 (oral), vehicle: other) was 102 % of control and the T/C (endpoint: mean survival time, dose: 50.0 mg/kg/injection, schedule: Q01DX009 (oral), vehicle: saline) was 168 % of control. For the same molecule, the T/C (endpoint: median survival time, dose: 6.7 mg/kg/injection, schedule: Q01DX009 (ip), vehicle: other) was 197 % of control and 225 % of control, the T/C (endpoint: median survival time, dose: 10.0 mg/kg/injection, schedule: Q01DX009 (ip), vehicle: other) was 208 % of control and 250 % of control and the T/C (endpoint: median survival time, dose: 15.0 mg/kg/injection, schedule: Q01DX009 (ip), vehicle: other) was 302 % of control and 332 % of control. The T/C (endpoint: median survival time, dose: 22.5 mg/kg/injection, schedule: Q01DX009 (ip), vehicle: other) was 152 % of control and 169 % of control.

In the case of COc1cc2c(cc1OC)CCN=C2, the T/C (endpoint: mean survival time, dose: 50.0 mg/kg/injection, schedule: Q01DX009 (ip), vehicle: saline) was 106 % of control and the T/C (endpoint: mean survival time, dose: 100.0 mg/kg/injection, schedule: Q01DX009 (ip), vehicle: saline) was 92 % of control.

With CC1CCCC(C)N1C1=NCCO1 (stereo unspecified) the T/C (endpoint: mean survival time, dose: 5.0 mg/kg/injection, schedule: Q04DX003 (ip), vehicle: saline) was 102 % of control, the T/C (endpoint: mean survival time, dose: 10.0 mg/kg/injection, schedule: Q04DX003 (ip), vehicle: saline) was 97 % of control and the T/C (endpoint: mean survival time, dose: 20.0 mg/kg/injection, schedule: Q04DX003 (ip), vehicle: saline) was 94 % of control.

With CC(CCc1ccccc1)NC(C)C(O)c1ccc(O)cc1 (stereo unspecified) the T/C [1] was 102 % of control, the T/C [2] was 96 % of control and the T/C [3] was 102 % of control. The T/C [4] was 102 % of control.

For OCc1ccccc1OC1OC(CO)C(O)C(O)C1O (stereo unspecified), the T/C (endpoint: mean survival time, dose: 50.0 mg/kg/injection, schedule: Q01DX009 (ip), vehicle: Klucel (hydroxypropylcellulose) (HPC)) was 96 % of control, the T/C (endpoint: mean survival time, dose: 100.0 mg/kg/injection, schedule: Q01DX009 (ip), vehicle: Klucel (hydroxypropylcellulose) (HPC)) was 101 % of control and the T/C (endpoint: mean survival time, dose: 200.0 mg/kg/injection, schedule: Q01DX009 (ip), vehicle: Klucel (hydroxypropylcellulose) (HPC)) was 108 % of control.

O=C1C(n2ccc(=O)n(C(=O)c3ccccc3)c2=O)CCN1CCO (stereo unspecified) was tested, and the T/C (endpoint: mean survival time, dose: 100.0 mg/kg/injection, schedule: Q01DX001 (ip), vehicle: saline) was 102 % of control, the T/C (endpoint: mean survival time, dose: 200.0 mg/kg/injection, schedule: Q01DX001 (ip), vehicle: saline) was 100 % of control and the T/C (endpoint: mean survival time, dose: 400.0 mg/kg/injection, schedule: Q01DX001 (ip), vehicle: saline) was 102 % of control.

Brc1ccc([I+]c2ccc(Br)cc2)cc1 was tested, and the T/C (endpoint: mean survival time, dose: 12.5 mg/kg/injection, schedule: Q04DX003 (ip), vehicle: saline with Tween-80) was 105 % of control, the T/C (endpoint: mean survival time, dose: 25.0 mg/kg/injection, schedule: Q04DX003 (ip), vehicle: saline with Tween-80) was 95 % of control and the T/C (endpoint: mean survival time, dose: 50.0 mg/kg/injection, schedule: Q04DX003 (ip), vehicle: saline with Tween-80) was 101 % of control. For the same molecule, the T/C [5] was 94 % of control.

For Cc1ccc(CC(F)F)cc1, the T/C [6] was 101 % of control, the T/C (endpoint: mean survival time, dose: 100.0 mg/kg/injection, schedule: Q04DX003 (ip), vehicle: saline sonified) was 98 % of control and the T/C [7] was 101 % of control. The T/C (endpoint: mean survival time, dose: 200.0 mg/kg/injection, schedule: Q04DX003 (ip), vehicle: saline sonified) was 96 % of control, the T/C [8] was 103 % of control and the T/C (endpoint: mean survival time, dose: 400.0 mg/kg/injection, schedule: Q04DX003 (ip), vehicle: saline sonified) was 96 % of control.

In the case of S=C(N/N=C1\C=Cc2ccccc2C1)N/N=C1\C=Cc2ccccc2C1, the T/C (endpoint: mean survival time, dose: 50.0 mg/kg/injection, schedule: Q04DX003 (ip), vehicle: saline) was 87 % of control, the T/C (endpoint: mean survival time, dose: 100.0 mg/kg/injection, schedule: Q04DX003 (ip), vehicle: saline) was 93 % of control and the T/C (endpoint: mean survival time, dose: 200.0 mg/kg/injection, schedule: Q04DX003 (ip), vehicle: saline) was 93 % of control.

With O=C1OC(c2ccccc2)CC1N1CCCCC1 (stereo unspecified) the T/C (endpoint: mean survival time, dose: 6.25 mg/kg/injection, schedule: Q01DX009 (ip), vehicle: saline sonified) was 92 % of control, the T/C (endpoint: mean survival time, dose: 12.5 mg/kg/injection, schedule: Q01DX009 (ip), vehicle: saline sonified) was 101 % of control and the T/C (endpoint: mean survival time, dose: 25.0 mg/kg/injection, schedule: Q01DX009 (ip), vehicle: saline sonified) was 105 % of control.

CC(C)CC(CCl)Cc1nc2ccccc2[nH]1 (stereo unspecified) was tested, and the T/C (endpoint: mean survival time, dose: 100.0 mg/kg/injection, schedule: Q04DX002 (ip), vehicle: saline with Tween-80) was 94 % of control and the T/C (endpoint: mean survival time, dose: 200.0 mg/kg/injection, schedule: Q04DX002 (ip), vehicle: saline with Tween-80) was 97 % of control.

COc1cc(NCCCNCC(C)(C)C)c2ncccc2c1 was tested, and the T/C (endpoint: mean survival time, dose: 1.25 mg/kg/injection, schedule: Q01DX009 (ip), vehicle: Klucel (hydroxypropylcellulose) (HPC)) was 98 % of control, the T/C (endpoint: mean survival time, dose: 2.5 mg/kg/injection, schedule: Q01DX009 (ip), vehicle: Klucel (hydroxypropylcellulose) (HPC)) was 105 % of control and the T/C (endpoint: mean survival time, dose: 5.0 mg/kg/injection, schedule: Q01DX009 (ip), vehicle: Klucel (hydroxypropylcellulose) (HPC)) was 100 % of control. For the same molecule, the T/C (endpoint: mean survival time, dose: 10.0 mg/kg/injection, schedule: Q01DX009 (ip), vehicle: Klucel (hydroxypropylcellulose) (HPC)) was 105 % of control.

In the case of CC(Cc1ccccc1)NC1=NCCO1 (stereo unspecified), the T/C [2] was 96 % of control, the T/C [3] was 104 % of control and the T/C [4] was 104 % of control and 98 % of control and 89 % of control. The T/C [9] was 93 % of control, the T/C [10] was 91 % of control and 87 % of control and the T/C [5] was 86 % of control.

CC(=O)Nc1ccc(N=CN(C)C)cc1 was tested, and the T/C [4] was 95 % of control, the T/C [10] was 95 % of control and the T/C [5] was 112 % of control.

With N#CC(/C=C/c1ccccc1)NCC(O)c1ccccc1 (stereo unspecified) the T/C [6] was 97 % of control, the T/C [7] was 101 % of control and the T/C [8] was 93 % of control.

With S=C=NCCc1ccccc1 the T/C (endpoint: mean survival time, dose: 3.12 mg/kg/injection, schedule: Q01DX009 (ip), vehicle: saline with Tween-80) was 93 % of control, the T/C (endpoint: mean survival time, dose: 6.25 mg/kg/injection, schedule: Q01DX009 (ip), vehicle: saline with Tween-80) was 92 % of control and the T/C (endpoint: mean survival time, dose: 12.5 mg/kg/injection, schedule: Q01DX009 (ip), vehicle: saline with Tween-80) was 106 % of control. For the same molecule, the T/C [1] was 104 % of control and the T/C [2] was 106 % of control.

CC(CCc1ccccc1)NC1=NCCO1 (stereo unspecified) was tested, and the T/C [3] was 102 % of control, the T/C [4] was 98 % of control and the T/C [9] was 95 % of control. The T/C [10] was 103 % of control, the T/C [11] was 98 % of control and the T/C [5] was 95 % of control.

In the case of CN(Cc1cnc2nc(N)nc(N)c2n1)c1ccc(C(=O)NC(CCC(=O)NC(CCC(=O)NC(CCC(=O)O)C(=O)O)C(=O)O)C(=O)O)cc1 (stereo unspecified), the T/C (endpoint: mean survival time, dose: 0.5 mg/kg/injection, schedule: Q01DX005 (ip), vehicle: sodium bicarbonate) was 98 % of control, the T/C (endpoint: mean survival time, dose: 1.0 mg/kg/injection, schedule: Q01DX005 (ip), vehicle: sodium bicarbonate) was 111 % of control and 112 % of control and the T/C (endpoint: mean survival time, dose: 2.0 mg/kg/injection, schedule: Q01DX005 (ip), vehicle: sodium bicarbonate) was 114 % of control and 121 % of control. The T/C (endpoint: mean survival time, dose: 8.0 mg/kg/injection, schedule: Q01DX005 (ip), vehicle: sodium bicarbonate) was 152 % of control and 153 % of control and the T/C (endpoint: mean survival time, dose: 16.0 mg/kg/injection, schedule: Q01DX005 (ip), vehicle: sodium bicarbonate) was 158 % of control.

N#CCC(C#N)C1C=CCC1 (stereo unspecified) was tested, and the T/C (endpoint: mean survival time, dose: 3.13 mg/kg/injection, schedule: Q04DX003 (ip), vehicle: saline) was 98 % of control and the T/C (endpoint: mean survival time, dose: 6.25 mg/kg/injection, schedule: Q04DX003 (ip), vehicle: saline) was 101 % of control.

Nc1nc2c(ncn2-c2ccc(OCCNC(=O)Nc3cc(S(=O)(=O)F)ccc3Cl)cc2)c(=O)[nH]1 (tested in a mixture with another compound) was tested, and the T/C (endpoint: mean survival time, dose: 75.0 mg/kg/injection, schedule: Q01DX001 (ip), vehicle: saline with Tween-80) was 92 % of control and the T/C (endpoint: mean survival time, dose: 150.0 mg/kg/injection, schedule: Q01DX001 (ip), vehicle: saline with Tween-80) was 95 % of control.

COc1ccc(C(C)=O)cc1C=O was tested, and the T/C [3] was 87 % of control, the T/C [4] was 97 % of control and the T/C [9] was 92 % of control. The T/C [10] was 104 % of control, the T/C [11] was 90 % of control and the T/C [5] was 102 % of control.
